Laboratory results taken from patent US20130211079A1, “SUBSTITUTED HETEROCYCLES AS THERAPEUTIC AGENTS FOR TREATING CANCER” (priority 2010, published 2013).

What was measured:
[1] = biological target: Hdm2 (Homo sapiens, UniProt Q00987); conditions: KD; method for each compound in column 'Method of KD calculation' (bin. titr., AIDA, FP, SPR)
Procedure: The affinities of imidazoline compounds of the present invention towards MDM2 or MDM4 proteins was measured by 2D H^1—N^15 HSQC NMR spectroscopy.
Water suppression was carried out using the WATERGATE sequence. NMR spectra were acquired at 300 K on a Bruker DRX 600 MHz spectrometer equipped with a cryoprobe and the data was processed using the Bruker program Xwin-NMR V. 3.5.
NMR ligand binding experiments were carried out in an analogous way to those previously described. […] For instance, 500 μL of the protein sample, at a concentration of about 0.1 mM, in 10% D2O and a 20 mM stock solution of nutin-3 (purchased from Cayman Chemical, MI) in DMSO-d6 were used in all experiments. […]
For example, 500 μL of the protein sample, at a concentration of about 0.1 mM, in 10% D2O and a 20 mM stock solution of nutin-3 (purchased from Cayman Chemical, MI) in DMSO-d6 were used in all of the experiments. […] The ^1H—^15N—HSQC spectra were recorded using fast HSQC pulse sequence as described by Mori et al., J. Magn. […]
The fluorescence intensities parallel (Intparallel) and perpendicular (Intperpedicular) to the plane of excitation were measured in black 384-well NBS assay plates (Corning) at room temperature (˜20° C.). […]
All fluorescence polarization values were expressed in millipolarization units (mP). […] Plates were read at 30 min after mixing all assay components. […]

[2] = Aqueous solubility; format: physicochemical; conditions: PB11 compared with PB2
Source text: The present inventor rationalized, therefore, that derivatization of an inventive compound to a more hydrophilic drugable molecule, for instance via amidation of a carboxylic acid group or the amidation of an ester group could potentially improve water solubility, binding affinity and bioavailability. See below for synthetic methodology.

[3] = biological target: T1, p53-hMDM2 complex (Homo sapiens, UniProt Q00987); test: 1D AIDA-NMR antagonist-induced dissociation assay; format: binding; conditions: p53 (res. 1-321) + Hdm2 (res. 1-125); FIG. 3
T1 construct: complex of p53 (res. 1-321)+Hdm2 (res. 1-125)
T1 sequence (Q00987 1-125, one chain of several): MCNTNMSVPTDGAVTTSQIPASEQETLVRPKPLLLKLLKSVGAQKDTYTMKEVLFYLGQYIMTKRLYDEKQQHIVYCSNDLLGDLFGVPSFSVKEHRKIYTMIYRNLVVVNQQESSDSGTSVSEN

Chain of Hdm2 (Q00987 1-125): as the sequence (Q00987 1-125, one chain of several) above

Binding to Hdm2 [1] | water solubility [2] | disruption of p53-hMDM2 complex (reappearance of Trp23 peak of p53) [3] | Compound
precipitation | – | – | Oc1ccc2ccc(Br)cc2c1C(NCC1CC1)c1ccc(Cl)cc1 (stereo not shown) [PB13, 7-Bromo-1-[(4-chlorophenyl)(cyclopropylmethylamino)methyl]naphthalen-2-ol]
– | improved | dissociation of the p53-hMDM2 complex | CC(C)C[C@@]1(C(=O)NCCc2ccncc2)N=CN(CC2CC2)C1c1ccc(Cl)cc1 (mixture of isomers) [PB11, cis-5-(4-chlorophenyl)-1-(cyclopropylmethyl)-4-isobutyl-N-(2-(pyridin-4-yl)ethyl)-4,5-dihydro-1H-imidazole-4-carboxamide]
precipitation | – | – | O=C1C(c2ccc(Cl)cc2)C(c2cc3ccc(Cl)cc3[nH]2)N1c1ccc(Cl)cc1 (stereo not shown) [PB15, 4-(6-Chloro-1H-indol-2-yl)-1,3-bis-(4-chlorophenyl)azetidin-2-one]
